Columns and labels:
[1] = system: Bacillus stearothermophilus IFO 12550; experiment: Viable Count of Bacillus stearothermophilus IFO 12550 in Erythritol Solution (heat resistant bacteria); type: cell-based; conditions: for The Number of Viable Cell: 75° C.
Experimental: Erythritol solutions of respective concentrations in the range of from 30 to 70% were prepared. To these was inoculated Bacillus stearothermophilus IFO 12550 as a heat resistant bacterium in a population (concentration) of 10,000 cells/mL or more.
After the inoculation, the solutions were stored at 50, 60 or 75° C., respectively, for 56 days and the number of viable cell was determined daily. The determination of the number of viable cell was performed by in the same manner as in Example 1.

[2] = system: Aspergillus flavus IFO 6343; experiment: Viable Count of Aspergillus flavus IFO 6343 in Erythritol Solution; type: cell-based
Experimental: Erythritol solutions of respective concentrations in the range of from 30 to 60% were prepared. To these were inoculated Staphylococcus aureus IFO 13276, Bacillus subtilis IFO 3134, and Escherichia coli IFO 3972 as bacteria, Candida albicans IFO 1549 and Saccharomyces cerevisiae ATCC 9763 as yeasts, Aspergillus niger IFO 6342, Aspergillus flavus IFO 6343, and Penicillium funiculosum IFO 6345 as fungi, respectively, in a population (concentration) of 10,000 cells/mL or more. After the inoculation, the solutions were stored at 30, 37, 45, 50, or 60° C., respectively, for 56 days and the number of viable cell was determined daily. The determination of the number of viable cell was performed by a method of coating 0.1 mL of appropriately diluted sample cultivation on an agar plate and cultivating and counting the number of viable cell (the number of colony) that grew after the cultivation.

Structure (SMILES): OC[C@@H](O)[C@@H](O)CO [Erythritol Solution, erythritol]
- The Number of Viable Cell ([1]; 50% w/w, Day 3): 220 cells/mL
- The Number of Viable Cell ([1]; 50% w/w, Day 7): 590 cells/mL
- The Number of Viable Cell ([1]; 50% w/w, Day 14): 0 cells/mL
- The Number of Viable Cell ([1]; 50% w/w, Day 28): 0 cells/mL
- The Number of Viable Cell ([1]; 50% w/w, Day 56): 0 cells/mL
- The Number of Viable Cell ([1]; 60% w/w, Day 0): 10000 or more cells/mL
- The Number of Viable Cell ([1]; 60% w/w, Day 3): 170 cells/mL
- The Number of Viable Cell ([1]; 60% w/w, Day 7): 480 cells/mL
- The Number of Viable Cell ([1]; 60% w/w, Day 14): 0 cells/mL
- The Number of Viable Cell ([1]; 60% w/w, Day 28): 0 cells/mL
- The Number of Viable Cell ([1]; 60% w/w, Day 56): 0 cells/mL
- The Number of Viable Cell ([1]; 70% w/w, Day 0): 10000 or more cells/mL
- The Number of Viable Cell ([1]; 70% w/w, Day 3): 140 cells/mL
- The Number of Viable Cell ([1]; 70% w/w, Day 7): 210 cells/mL
- The Number of Viable Cell ([1]; 70% w/w, Day 14): 0 cells/mL
- The Number of Viable Cell ([1]; 70% w/w, Day 28): 0 cells/mL
- The Number of Viable Cell ([1]; 70% w/w, Day 56): 0 cells/mL
- growth of the bacteria ([1]; all the concentrations, temperature of 50° C. or more): inhibited
- The Number of Viable Cell ([2]; 45° C., 30% w/w, Day 0): ≥ 10000 cells/mL
- The Number of Viable Cell ([2]; 45° C., 30% w/w, Day 3): ≥ 10000 cells/mL
- The Number of Viable Cell ([2]; 45° C., 30% w/w, Day 7): ≥ 10000 cells/mL
- The Number of Viable Cell ([2]; 45° C., 30% w/w, Day 14): ≥ 10000 cells/mL
- The Number of Viable Cell ([2]; 45° C., 30% w/w, Day 28): 0 cells/mL
- The Number of Viable Cell ([2]; 45° C., 30% w/w, Day 56): 0 cells/mL
- The Number of Viable Cell ([2]; 45° C., 40% w/w, Day 0): ≥ 10000 cells/mL
- The Number of Viable Cell ([2]; 45° C., 40% w/w, Day 3): ≥ 10000 cells/mL
- The Number of Viable Cell ([2]; 45° C., 40% w/w, Day 7): ≥ 10000 cells/mL
- The Number of Viable Cell ([2]; 45° C., 40% w/w, Day 14): ≥ 10000 cells/mL
- The Number of Viable Cell ([2]; 45° C., 40% w/w, Day 28): 0 cells/mL
- The Number of Viable Cell ([2]; 45° C., 40% w/w, Day 56): 0 cells/mL
- The Number of Viable Cell ([2]; 45° C., 50% w/w, Day 0): ≥ 10000 cells/mL
- The Number of Viable Cell ([2]; 45° C., 50% w/w, Day 3): ≥ 10000 cells/mL
- The Number of Viable Cell ([2]; 45° C., 50% w/w, Day 7): ≥ 10000 cells/mL
- The Number of Viable Cell ([2]; 45° C., 50% w/w, Day 14): 0 cells/mL
- The Number of Viable Cell ([2]; 45° C., 50% w/w, Day 28): 0 cells/mL
- The Number of Viable Cell ([2]; 45° C., 50% w/w, Day 56): 0 cells/mL
- The Number of Viable Cell ([2]; 50° C., 30% w/w, Day 0): ≥ 10000 cells/mL
- The Number of Viable Cell ([2]; 50° C., 30% w/w, Day 3): 0 cells/mL
- The Number of Viable Cell ([2]; 50° C., 30% w/w, Day 7): 0 cells/mL
- The Number of Viable Cell ([2]; 50° C., 30% w/w, Day 14): 0 cells/mL
- The Number of Viable Cell ([2]; 50° C., 30% w/w, Day 28): 0 cells/mL
- The Number of Viable Cell ([2]; 50° C., 30% w/w, Day 56): 0 cells/mL
- The Number of Viable Cell ([2]; 50° C., 40% w/w, Day 0): ≥ 10000 cells/mL
- The Number of Viable Cell ([2]; 50° C., 40% w/w, Day 3): 0 cells/mL
- The Number of Viable Cell ([2]; 50° C., 40% w/w, Day 7): 0 cells/mL
- The Number of Viable Cell ([2]; 50° C., 40% w/w, Day 14): 0 cells/mL
- The Number of Viable Cell ([2]; 50° C., 40% w/w, Day 28): 0 cells/mL
- The Number of Viable Cell ([2]; 50° C., 40% w/w, Day 56): 0 cells/mL
- The Number of Viable Cell ([2]; 50° C., 50% w/w, Day 0): ≥ 10000 cells/mL
- The Number of Viable Cell ([2]; 50° C., 50% w/w, Day 3): 0 cells/mL
- The Number of Viable Cell ([2]; 50° C., 50% w/w, Day 7): 0 cells/mL
- The Number of Viable Cell ([2]; 50° C., 50% w/w, Day 14): 0 cells/mL
- The Number of Viable Cell ([2]; 50° C., 50% w/w, Day 28): 0 cells/mL
- The Number of Viable Cell ([2]; 50° C., 50% w/w, Day 56): 0 cells/mL
- growth of the microbes ([2]; temperature of 50° C. or more): prevented from growing
- time after which microbes died ([2]; temperature of 50° C. or more): 3 days

From patent US6489469B1, “Method for storing or transporting erythritol solution” (Nikken Chemicals Co., Ltd., priority 1999, dated 2002)
